From US20220118123A1, “COMBINATION OF AR ANTAGONISTS AND TARGETED THORIUM CONJUGATES” (Bayer Aktiengesellschaft, priority 2019, published 2022)

What was measured:
C4-2 cells [1] = assay: in vitro cytotoxicity of PSMA-TTC with AR antagonist pre-treatment, cell titer Glo cell viability; format: cell-based; details: then PSMA-TTC dose titration (50 MBq/mg), 5 days incubation
Protocol: (§1) The effects of PSMA-TTC compound A′ and compound B (darolutamide, ODM-201) or compound C (enzalutamide) in PSMA overexpressing prostate cancer cell lines LNCaP and C4-2 were investigated in vitro. LNCaP (hormone sensitive) and C4-2 (hormone insensitive) cells were co-cultured in presence of either enzalutamide or darolutamide/ODM-201 and the effect on cell binding of PSMA-conjugate and cytotoxicity of PSMA-TTC was evaluated.
C4-2 and LNCaP cells were seeded in similar cell medium (RPMI/10% FBS/1% HEPES/1% MEM NEAA/1% NaPyruvate/1% L-glutamine). One day after seeding, cells were exposed to either enzalutamide (1 μM), darolutamide (=ODM-201) (10 μM) or DMSO (0.1% (v/v); reference). Seven, 14 and 21 days after co-culturing, the cells were analyzed for cell surface binding of PSMA antibody-chelator conjugate by flow cytometry. […] In addition, cells pre-treated in the presence or absence of AR antagonists at the respective concentrations entered cytotoxicity experiments using cell titer Glo (Promega) as readout for cell viability.
Respective cells pretreated for 0 or 7 days with AR antagonists were seeded on Day −1 at an appropriate cell density (e.g. 1000 cells/well). […] Cell viability was measured after incubation for 5 days in the presence of dose titrations of PSMA-TTC or corresponding controls. […]

[2] = tested on: KUCaP-1 human patient derived prostate cancer model; assay: anti-tumor activity in KUCaP-1 patient derived prostate cancer xenograft model; format: in vivo, mice; details: KUCaP-1, day 32
C4-2 cells [3] = assay: cell surface binding of PSMA antibody-chelator conjugate by flow cytometry after co-culture with AR antagonists; format: cell-based; details: 10 μM darolutamide; 7, 14 and 21 days co-culturing; saturating conjugate concentrations; vs DMSO reference
Protocol: as §1
C4-2 and LNCaP cells were seeded in similar cell medium (RPMI/10% FBS/1% HEPES/1% MEM NEAA/1% NaPyruvate/1% L-glutamine). One day after seeding, cells were exposed to either enzalutamide (1 μM), darolutamide (=ODM-201) (10 μM) or DMSO (0.1% (v/v); reference). Seven, 14 and 21 days after co-culturing, the cells were analyzed for cell surface binding of PSMA antibody-chelator conjugate by flow cytometry. The binding of PSMA conjugate at saturating concentrations increased in both cell lines after treatment with the AR antagonists: maximal binding of PMSA conjugate was increased by 1 μM enzalutamide by 1.9 to 2.8 fold and by 10 μM darolutamide by 1.7-3.6 fold. Similar results were obtained in LNCaP cells. In addition, cells pre-treated in the presence or absence of AR antagonists at the respective concentrations entered cytotoxicity experiments using cell titer Glo (Promega) as readout for cell viability.

[4] = tested on: ST1273 human patient derived prostate cancer model; assay: anti-tumor activity in ST1273 patient derived prostate cancer xenograft model; format: in vivo, mice
[5] = ST1273, 26 days after dosing/start of treatment

Row | SMILES | sensitivity to growth inhibition by PSMA-TTC (C4-2 cells [1]; darolutamide 10 μM for 7 days) | PD, progressive disease (mice/group) [2] | Response rate (RR) ([2]; PSMA-TTC 150 kBq/kg i.v., darolutamide 200 mg/kg QD p.o.) | increase of maximal binding of PSMA conjugate (C4-2 cells [3]) | sensitivity to growth inhibition by PSMA-TTC (C4-2 cells [1]; enzalutamide 1 μM for 7 days) | complete response, share of the mice [4, 5] | partial response, share of the mice [4, 5] | CR, complete response (mice/group) ([4]; ST1273, day 26) | PR, partial response (mice/group) ([4]; ST1273, day 26) | Response rate (RR) ([4]; ST1273, day 26, PSMA-TTC 250 kBq/kg single i.v., enzalutamide 30 mg/kg QD×28 p.o.)
1 | CC(O)c1cc(C(=O)N[C@@H](C)Cn2ccc(-c3ccc(C#N)c(Cl)c3)n2)n[nH]1 (stereo partly drawn) [darolutamide, N-((S)-1-(3-(3-Chloro-4-cyanophenyl)-1H-pyrazol-1-yl-)-propan-2-yl)-5-(1-hydroxyethyl)-1H-pyrazole-3-carboxamide] | increased sensitivity to growth inhibition by PSMA-TTC | (PD: 10/10) | RR: 0% | 1.7-3.6 fold | – | – | – | – | – | –
2 | CNC(=O)c1ccc(N2C(=S)N(c3ccc(C#N)c(C(F)(F)F)c3)C(=O)C2(C)C)cc1F [enzalutamide] | – | – | – | – | increased sensitivity to growth inhibition by PSMA-TTC | 33% | 67% | (CR: 3/9, | PR: 6/9) | RR: 100%
